Several values for one entry are separate records, joined by “and”; a condition that tells them apart may be missing. Equal values may be shown once. Results filed as inconclusive are left out. Activity calls are given as the source filed them.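 The calls were made as follows: active = viability below 70% at one or more tested concentrations in every replicate; inactive = viability above 70% at all doses, or replicates disagree.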
System: not listed separately
Assay: Vero E6 cell cytotoxicity, SAR follow-up, cytotoxicity control for West Nile virus antiviral project, synthesized analogs, extended characterization 1 (AID 588374)
Settings: Vero E6 viability, CellTiter-Glo luminescence, 72 h; at 50 µM (top of the series)

With O=C(CSc1nc2ccccc2c(=O)n1-c1ccccc1)Nc1nc(-c2ccccc2)cs1 as the compound, how does the viability read?
The viability was 77.7% (inactive).

With O=C(CSc1nc2ccccc2c(=O)n1-c1ccc(F)c(F)c1)Nc1nccs1 as the compound, how does the viability read?
The viability was 74.1% (inactive).

Which viability does the source give for O=C(CSc1nc2cccc(F)c2c(=O)n1-c1ccccc1)Nc1ccc2ncsc2c1 here?
The viability was 86.2% (inactive).

With Cn1c(NC(=O)CSc2nc3ccccc3c(=O)n2-c2ccc(Cl)c(Cl)c2)nc2ccccc21 as the compound, how does the viability read?
Its viability is 74.2% (inactive).

Which viability does the source give for O=C(CSc1nc2ccccc2c(=O)n1-c1ccc(Cl)c(Cl)c1)Nc1cccc2c1CCC2 here?
Its viability is 76.2% (inactive).

Which viability does the source give for O=C(CSc1nc2ccccc2c(=O)n1-c1cc(F)c(F)c(F)c1)Nc1ccc2c(c1)CCC2 here?
Its viability is 76.3% (inactive).

For O=C(CSc1nc2ccccc2c(=O)n1-c1ccc(Cl)c(Cl)c1)NC1CCc2ccccc21 (configuration not stated), which viability is on record?
The viability was 73.8% (inactive).

Same assay, conditions: Vero E6 viability, CellTiter-Glo luminescence, 72 h; at 100 µM (top of the series)

With O=C(CSc1nc2ccccc2c(=O)n1-c1cc(Cl)cc(Cl)c1)Nc1cccc2ccccc12 as the compound, how does the viability read?
The viability was 83.8% (inactive).

With Cc1nc2cc(NC(=O)CSc3nc4ccccc4c(=O)n3-c3ccccc3)ccc2s1 as the compound, how does the viability read?
The viability was 75.1% (inactive).

With O=C(CSc1nc2ccccc2c(=O)n1-c1ccc(Cl)c(Cl)c1)Nc1ccc2scnc2c1 as the compound, how does the viability read?
The viability was 75.5% (inactive).

For O=C(CSc1nc2ccccc2c(=O)n1-c1ccc(Cl)c(Cl)c1)Nc1ccc2c(c1)CCC2, which viability is on record?
The viability was 70.3% (inactive).

Which viability does the source give for O=C(CCCCSc1nc2cccc(F)c2c(=O)n1-c1ccc(Cl)c(F)c1)Nc1ccc2c(c1)CCC2 here?
Its viability is 81.9% (inactive).

Which viability does the source give for O=C(CCCSc1nc2ccccc2c(=O)n1-c1ccccc1)Nc1ccc2c(c1)CCC2 here?
Its viability is 85.5% (inactive).

Which viability does the source give for O=C(CSc1nc2ccccc2c(=O)n1-c1ccc(Cl)c(Cl)c1)N1CCCCCC1 here?
The viability was 74.5% (inactive).

With O=C(CSc1nc2ccccc2c(=O)n1-c1ccc(F)c(F)c1)NC1CCCc2ccccc21 (configuration not stated) as the compound, how does the viability read?
Its viability is 76.2% (inactive).

With O=C(CCCSc1nc2ccccc2c(=O)n1-c1ccc(Cl)c(Cl)c1)Nc1ccc2c(c1)CCC2 as the compound, how does the viability read?
Its viability is 80.6% (inactive).

For O=C(COc1nc2ccccc2c(=O)n1-c1ccccc1)Nc1ccc2c(c1)CCC2, which viability is on record?
Its viability is 71.6% (inactive).

For O=C(CCCSc1nc2cccc(F)c2c(=O)n1-c1ccc(Cl)c(F)c1)Nc1ccc2c(c1)CCC2, which viability is on record?
The viability was 82.9% (inactive).

Which viability does the source give for O=C(CSc1nc2ccccc2c(=O)n1-c1ccccc1)Nc1ccc2c(c1)CCC2 here?
Its viability is 76.9% (inactive) and 77% (inactive).

Which viability does the source give for O=C(CSc1nc2ccccc2c(=O)n1-c1ccc(F)c(Cl)c1)Nc1cccc2ccccc12 here?
The viability was 75.5% (inactive).

For O=C(CSc1nc2ccccc2c(=O)n1-c1ccccc1)Nc1nccs1, which viability is on record?
The viability was 96.3% (inactive).

Which viability does the source give for O=C(CCCSc1nc2cccc(F)c2c(=O)n1-c1ccc(F)c(Br)c1)Nc1ccc2c(c1)CCC2 here?
The viability was 81.7% (inactive).

For O=C(CCCCSc1nc2ccccc2c(=O)n1-c1cc(F)c(F)c(F)c1)Nc1ccc2c(c1)CCC2, which viability is on record?
Its viability is 70.2% (inactive).

With O=C(CSc1nc2ccccc2c(=O)n1-c1ccc(Cl)c(Cl)c1)Nc1ccc2c(c1)OCO2 as the compound, how does the viability read?
The viability was 74.2% (inactive).

For O=C(CCSc1nc2ccccc2c(=O)n1-c1ccc(F)c(Cl)c1)Nc1ccc2c(c1)CCC2, which viability is on record?
Its viability is 77.6% (inactive).

For O=C(CSc1nc2cccc(F)c2c(=O)n1-c1ccccc1)Nc1ccc2c(c1)OCO2, which viability is on record?
The viability was 76.3% (inactive).

For O=C(CSc1nc2ccccc2c(=O)n1-c1ccccc1)Nc1ccc2ncsc2c1, which viability is on record?
The viability was 88.3% (inactive).

With O=C(CSc1nc2ccccc2c(=O)n1-c1ccccc1)NC1Cc2ccccc2C1 as the compound, how does the viability read?
Its viability is 75.3% (inactive).

With O=C(CSc1nc2ccccc2c(=O)n1-c1ccccc1)NC1CCc2ccccc21 (configuration not stated) as the compound, how does the viability read?
Its viability is 75.5% (inactive).

With O=C(CCCSc1nc2cccc(F)c2c(=O)n1-c1ccc(F)c(F)c1)Nc1ccc2c(c1)CCC2 as the compound, how does the viability read?
Its viability is 78% (inactive).

System: Vero E6 viability, CellTiter-Glo luminescence, 72 h
Assay: as above
Settings: not given

For O=C(CSc1nc2ccccc2c(=O)n1-c1cc(Cl)cc(Cl)c1)Nc1nccs1, which CC50 is on record?
The CC50 was 18 µM.

With O=C(CSc1nc2ccccc2c(=O)n1-c1ccc(Cl)c(Cl)c1)Nc1nc2cc(Cl)ccc2o1 as the compound, how does the CC50 read?
The CC50 was 18.8 µM.

With O=C(CCCCSc1nc2ccccc2c(=O)n1-c1ccccc1)Nc1ccc2c(c1)CCC2 as the compound, how does the CC50 read?
Its CC50 is 50 µM.

Which CC50 does the source give for Cc1cnc(NC(=O)CSc2nc3ccccc3c(=O)n2-c2ccc(Cl)c(Cl)c2)s1 here?
The CC50 was 28.8 µM.

For O=C(CSc1nc2ccccc2c(=O)n1-c1cc(F)c(F)c(F)c1)NC1CCc2ccccc21 (configuration not stated), which CC50 is on record?
The CC50 was 36 µM.

For O=C(CSc1nc2ccccc2c(=O)n1-c1ccccc1)Nc1nc2cc(Cl)ccc2o1, which CC50 is on record?
Its CC50 is 31.7 µM.

For O=C(CSc1nc2ccccc2c(=O)n1-c1ccccc1)Nc1ccc2c(c1)OCO2, which CC50 is on record?
Its CC50 is 57.3 µM.

For O=C(CSc1nc2ccccc2c(=O)n1-c1ccccc1)Nc1nc2ccc([N+](=O)[O-])cc2s1, which CC50 is on record?
The CC50 was 40.5 µM.

With Cc1nc2cc(NC(=O)CSc3nc4ccccc4c(=O)n3-c3ccc(Cl)c(Cl)c3)ccc2s1 as the compound, how does the CC50 read?
The CC50 was 18 µM.

Which CC50 does the source give for O=C(CSc1nc2ccccc2c(=O)n1-c1ccc(Cl)c(Cl)c1)Nc1ncc([N+](=O)[O-])s1 here?
Its CC50 is 21.7 µM.

Which CC50 does the source give for O=C(CSc1nc2ccccc2c(=O)n1-c1cc(F)c(F)c(F)c1)Nc1ccc2c(c1)OCO2 here?
The CC50 was 32.8 µM.

Which CC50 does the source give for O=C(CSc1nc2ccccc2c(=O)n1-c1ccc(Cl)c(Cl)c1)Nc1nccs1 here?
Its CC50 is 14.9 µM.

With O=C(CCCCSc1nc2ccccc2c(=O)n1-c1ccc(F)c(Cl)c1)Nc1ccc2c(c1)CCC2 as the compound, how does the CC50 read?
The CC50 was 93.9 µM.

For Cn1c(NC(=O)CSc2nc3ccccc3c(=O)n2-c2ccccc2)nc2ccccc21, which CC50 is on record?
The CC50 was 16.4 µM.

Which CC50 does the source give for O=C(CSc1nc2ccccc2c(=O)n1-c1cc(Cl)cc(Cl)c1)Nc1cccc2c1CCC2 here?
The CC50 was 17.5 µM.

With O=C(CSc1nc2ccccc2c(=O)n1-c1ccccc1)Nc1cccc2c1CCC2 as the compound, how does the CC50 read?
The CC50 was 37.3 µM.

Which CC50 does the source give for O=C(CCSc1nc2cccc(F)c2c(=O)n1-c1ccccc1)Nc1ccc2c(c1)CCC2 here?
Its CC50 is 52.6 µM.

Source: PubChem BioAssay AID588374 (Southern Research Specialized Biocontainment Screening …, 2011)
